Data from patent US8816135B2, “Trisphenol compound” (Honshu Chemical Industry Co., Ltd., priority 2009, dated 2014).

Key:
[1] = Measurement of solubility in solvent (propyleneglycolmonomethylether acetate); settings: 28° C., largest amount that dissolved completely, added in 1 g steps to 10 g of solvent
Protocol: As for solubility, 10 g of propyleneglycolmonomethylether acetate was put in a container and 1 g of trisphenol compound was added while keeping the temperature at 28° C., and the mixture was agitated for 10 minutes to check for complete dissolution of the compound. […] The solubility (amount in grams per 100 g of solvent) was calculated from the largest amount of compound in grams that dissolved completely.

[2] = Measurement of glass transition temperature by differential scanning calorimeter; type: physicochemical; settings: DSC, melted compound cooled and heated again, 10.0° C./min.
Protocol: Each compound was heated to a temperature 20° C. higher than the melting point of the compound in crystal form using a differential scanning calorimeter, and the melted compound was cooled and then heated again to measure the glass transition point. The measurement conditions were 40° C. as the temperature at which to start measurement, the melting point+20° C. as the temperature at which to end measurement, and 10.0° C./min. as the rate of heating.

| Structure (SMILES) | melting point | Solubility [1] | Glass transition temperature [2] |
| --- | --- | --- | --- |
| CC(c1ccc(O)cc1)(c1ccc(O)cc1)c1ccc(-c2ccc(O)cc2)cc1 [Example 1, 1-[4-(4-hydroxyphenyl)phenyl]-1,1-bis(4-hydroxyphenyl)ethane] | 198 °C | 40 g/100 g of propyleneglycolmonomethylether acetate | – |
| CC(C)(c1ccc(O)cc1)c1ccc(C(C)(c2ccc(O)cc2)c2ccc(O)cc2)cc1 [Comparative Example, 1-[α-methyl-α-(4-hydroxyphenyl)ethyl]-4-[α,α-bis(4-hydroxyphenyl)ethyl]benzene, reference compound] | – | – | 96 °C |
| Cc1cc(C(C)(c2ccc(-c3ccc(O)cc3)cc2)c2cc(C)c(O)c(C)c2)cc(C)c1O [Example 3, 1-[4-(4-hydroxyphenyl)phenyl]-1,1-bis(4-hydroxy-3,5-dimethylphenyl)ethane] | 231 °C | 10 g/100 g of propyleneglycolmonomethylether acetate | 104 °C |
